According to patent US8796245B2 (TetraPhase Pharmaceuticals, Inc., priority 2008, dated 2014):
≈ marks a conversion by molar mass, not a printed value.

Experiments:
Format in all cases: cell-based
[1] = test system: E. coli ATCC 25922 (EC107); assay: Minimum inhibitory concentration assay, EC107; settings: Escherichia coli, ATCC25922; E. coli ATCC 25922, wt; read-out: MICs EC107
Protocol: (§1) Frozen bacterial strains were thawed and subcultured onto Mueller Hinton Broth (MHB) or other appropriate media (Streptococcus requires blood and Haemophilus requires hemin and NAD). Following incubation overnight, the strains were subcultured onto Mueller Hinton Agar and again incubated overnight. […] Isolated colonies were selected to prepare a starting inoculum equivalent to a 0.5 McFarland standard. The starting inoculum was diluted 1:125 using MHB for further use. Test compounds were prepared by dilution in sterile water to a final concentration of 5.128 mg/mL. Antibiotics (stored frozen, thawed and used within 3 hours of thawing) and compounds were further diluted to the desired working concentrations.
(§2) The assays were run as follows. Fifty μL of MHB was added to wells 2-12 of a 96-well plate. One hundred […] of appropriately diluted antibiotics was added to well 1. Fifty μL of antibiotics was removed from well 1 and added to well 2 and the contents of well 2 mixed by pipetting up and down five times. Fifty μL of the mixture in well 2 was removed and added to well 3 and mixed as above. Serial dilutions were continued in the same manner through well 12. Fifty μL was removed from well 12 so that all contained 50 μL. Fifty μL of the working inoculum was then added to all test wells. A growth control well was prepared by adding 50 μL of working inoculum and 50 μL of MHB to an empty well. The plates were then incubated at 37° C. overnight, removed from the incubator and each well was read on a plate reading mirror. The lowest concentration (MIC) of test compound that inhibited the growth of the bacteria was recorded.

[2] = test system: K. pneumoniae ATCC 13883 (KP109); assay: Minimum inhibitory concentration assay, KP109; settings: Klebsiella pneumoniae, ATCC13883; K. pneumoniae ATCC 13883, wt; read-out: MICs KP109
Protocol: as §1, §2

[3] = test system: S. aureus ATCC 29213 (SA101, MSSA); assay: Minimum inhibitory concentration assay, SA101; settings: Staphylococcus aureus; S. aureus ATCC 29213, MSSA control; read-out: MICs SA101
Protocol: as §1, §2

[4] = test system: S. pneumoniae ATCC 49619 (SP106); assay: Minimum inhibitory concentration assay, SP106; settings: Streptococcus pneumoniae, ATCC49619; S. pneumoniae ATCC 49619, wt; read-out: MICs SP106
Protocol: as §1, §2

[5] = test system: S. pneumoniae SP160 (tet resistant: tet M); assay: Minimum inhibitory concentration assay, SP160; settings: Streptococcus pneumoniae, read-out: MICs SP160
Protocol: as §1, §2

[6] = test system: S. aureus SA161 (tet resistant: tet(M) ribosomal protection); assay: Minimum inhibitory concentration assay, SA161; settings: Staphylococcus aureus, read-out: MICs SA161
Protocol: as §1, §2

[7] = test system: A. baumanii ATCC 19606 (AB110); assay: Minimum inhibitory concentration assay, AB110; settings: Acinetobacter baumannii, ATCC19606; A. baumanii ATCC 19606, wt; read-out: MICs AB110
Protocol: as §1, §2

[8] = test system: E. faecalis EF159 (tet resistant: tetM); assay: Minimum inhibitory concentration assay, EF159; settings: Enterococcus faecalis, read-out: MICs EF159
Protocol: as §1, §2

[9] = test system: E. faecalis ATCC 29212 (EF103); assay: Minimum inhibitory concentration assay, EF103; settings: Enterococcus faecalis, ATCC29212, read-out: MICs EF103
Protocol: as §1, §2

[10] = test system: P. aeruginosa ATCC 27853 (PA111); assay: Minimum inhibitory concentration assay, PA111; settings: Pseudomonas aeruginosa, ATCC27853; P. aeruginosa ATCC 27853, wt; read-out: MICs PA111
Protocol: as §1, §2

[11] = test system: S. aureus SA158 (tet resistant: tetK efflux); assay: microbe, parasite or virus in culture; settings: Staphylococcus aureus, read-out: MICs SA158
Protocol: as §1, §2

[12] = test system: E. coli EC155 (tet resistant: tetA efflux); assay: microbe, parasite or virus in culture; settings: Escherichia coli; E. coli tet resistant: tetA (efflux); read-out: MICs EC155
Protocol: as §1, §2

[13] = test system: K. pneumoniae KP153 (tet resistant: tetA efflux); assay: microbe, parasite or virus in culture; settings: Klebsiella pneumoniae, read-out: MICs KP153
Protocol: as §1, §2

[14] = test system: S. aureus ATCC 13709 (SA100, MSSA, Smith strain); assay: Minimum inhibitory concentration assay, SA100; settings: Staphylococcus aureus; S. aureus ATCC 13709, MSSA Smith strain; read-out: MICs SA100
Protocol: as §1, §2

[15] = test system: E. cloacae ATCC 13047 (EC108); assay: Minimum inhibitory concentration assay, EC108; settings: Enterobacter cloacae, ATCC13047; E. cloacae ATCC 13047, wt; read-out: MICs EC108
Protocol: as §1, §2

SMILES | MIC [1] | MIC [2] | MIC [3] | MIC [4] | MIC [5] | MIC [6] | MIC [7] | MIC [8] | MIC [9] | MIC [10] | MIC [11] | MIC [12] | MIC [13] | MIC [14] | MIC [15]
CN(C)[C@@H]1C(O)=C(C(N)=O)C(=O)[C@@]2(O)C(O)=C3C(=O)c4c(O)c(NC(=O)CNCC(C)(C)C)cc(F)c4C[C@H]3C[C@@H]12 [Compound 15] | 1 µg/mL (≈ 1.74 µM) | 2 µg/mL (≈ 3.48 µM) | 0.5 µg/mL (≈ 0.87 µM) | 0.016 µg/mL (≈ 0.0278 µM) | 0.016 µg/mL (≈ 0.0278 µM) | 0.5 µg/mL (≈ 0.87 µM) | 0.125 µg/mL (≈ 0.218 µM) | 0.5 µg/mL (≈ 0.87 µM) | 0.5 µg/mL (≈ 0.87 µM) | 16 µg/mL (≈ 27.8 µM) | 0.25 µg/mL (≈ 0.435 µM) | 4 µg/mL (≈ 6.96 µM) | 4 µg/mL (≈ 6.96 µM) | 0.5 µg/mL (≈ 0.87 µM) | 4 µg/mL (≈ 6.96 µM)
CN(C)[C@@H]1C(O)=C(C(N)=O)C(=O)[C@@]2(O)C(O)=C3C(=O)c4c(O)c(NC(=O)CN5CCC5)cc(F)c4C[C@H]3C[C@@H]12 [Compound 32] | 0.25 µg/mL (≈ 0.459 µM) | 1 µg/mL (≈ 1.84 µM) | 0.125 µg/mL (≈ 0.23 µM) | ≤ 0.0156 µg/mL | ≤ 0.0156 µg/mL | 0.25 µg/mL (≈ 0.459 µM) | 2 µg/mL (≈ 3.67 µM) | 0.125 µg/mL (≈ 0.23 µM) | 0.0625 µg/mL (≈ 0.115 µM) | 8 µg/mL (≈ 14.7 µM) | 0.5 µg/mL (≈ 0.918 µM) | 8 µg/mL (≈ 14.7 µM) | 4 µg/mL (≈ 7.35 µM) | 0.5 µg/mL (≈ 0.918 µM) | 1 µg/mL (≈ 1.84 µM)
CCCNCC(=O)Nc1cc(F)c2c(c1O)C(=O)C1=C(O)[C@]3(O)C(=O)C(C(N)=O)=C(O)[C@@H](N(C)C)[C@@H]3C[C@@H]1C2 [Compound 12] | 0.25 µg/mL (≈ 0.457 µM) | 1 µg/mL (≈ 1.83 µM) | ≤ 0.0156 µg/mL | ≤ 0.0156 µg/mL | ≤ 0.0156 µg/mL | 0.125 µg/mL (≈ 0.229 µM) | 1 µg/mL (≈ 1.83 µM) | 0.0625 µg/mL (≈ 0.114 µM) | ≤ 0.0156 µg/mL | 16 µg/mL (≈ 29.3 µM) | 0.5 µg/mL (≈ 0.915 µM) | 8 µg/mL (≈ 14.6 µM) | 4 µg/mL (≈ 7.32 µM) | ≤ 0.0156 µg/mL | 1 µg/mL (≈ 1.83 µM)
CN(C)[C@@H]1C(O)=C(C(N)=O)C(=O)[C@@]2(O)C(O)=C3C(=O)c4c(O)c(NC(=O)CN5CCCCC5)cc(F)c4C[C@H]3C[C@@H]12 [Compound 43] | 1 µg/mL (≈ 1.75 µM) | 2 µg/mL (≈ 3.49 µM) | 0.5 µg/mL (≈ 0.873 µM) | ≤ 0.0156 µg/mL | ≤ 0.0156 µg/mL | 1 µg/mL (≈ 1.75 µM) | 0.125 µg/mL (≈ 0.218 µM) | 0.5 µg/mL (≈ 0.873 µM) | 0.25 µg/mL (≈ 0.437 µM) | 32 µg/mL (≈ 55.9 µM) | 0.5 µg/mL (≈ 0.873 µM) | 4 µg/mL (≈ 6.99 µM) | 4 µg/mL (≈ 6.99 µM) | 0.5 µg/mL (≈ 0.873 µM) | 4 µg/mL (≈ 6.99 µM)
CCCN(C)CC(=O)Nc1cc(F)c2c(c1O)C(=O)C1=C(O)[C@]3(O)C(=O)C(C(N)=O)=C(O)[C@@H](N(C)C)[C@@H]3C[C@@H]1C2 [Compound 28] | 2 µg/mL (≈ 3.57 µM) | 4 µg/mL (≈ 7.14 µM) | 1 µg/mL (≈ 1.78 µM) | 0.125 µg/mL (≈ 0.223 µM) | 0.0625 µg/mL (≈ 0.111 µM) | 2 µg/mL (≈ 3.57 µM) | 0.5 µg/mL (≈ 0.892 µM) | 1 µg/mL (≈ 1.78 µM) | 1 µg/mL (≈ 1.78 µM) | > 32 µg/mL | 1 µg/mL (≈ 1.78 µM) | 16 µg/mL (≈ 28.5 µM) | 16 µg/mL (≈ 28.5 µM) | 2 µg/mL (≈ 3.57 µM) | 8 µg/mL (≈ 14.3 µM)
COC[C@@H]1CCCN1CC(=O)Nc1cc(F)c2c(c1O)C(=O)C1=C(O)[C@]3(O)C(=O)C(C(N)=O)=C(O)[C@@H](N(C)C)[C@@H]3C[C@@H]1C2 [Compound 41] | 4 µg/mL (≈ 6.64 µM) | 8 µg/mL (≈ 13.3 µM) | 1 µg/mL (≈ 1.66 µM) | 0.125 µg/mL (≈ 0.207 µM) | 0.125 µg/mL (≈ 0.207 µM) | 2 µg/mL (≈ 3.32 µM) | 0.5 µg/mL (≈ 0.83 µM) | 2 µg/mL (≈ 3.32 µM) | 1 µg/mL (≈ 1.66 µM) | > 32 µg/mL | 1 µg/mL (≈ 1.66 µM) | 16 µg/mL (≈ 26.6 µM) | 16 µg/mL (≈ 26.6 µM) | 1 µg/mL (≈ 1.66 µM) | 16 µg/mL (≈ 26.6 µM)
CCCCCNCC(=O)Nc1cc(F)c2c(c1O)C(=O)C1=C(O)[C@]3(O)C(=O)C(C(N)=O)=C(O)[C@@H](N(C)C)[C@@H]3C[C@@H]1C2 [Compound 26] | 0.5 µg/mL (≈ 0.87 µM) | 2 µg/mL (≈ 3.48 µM) | 1 µg/mL (≈ 1.74 µM) | ≤ 0.0156 µg/mL | ≤ 0.0156 µg/mL | 1 µg/mL (≈ 1.74 µM) | 0.25 µg/mL (≈ 0.435 µM) | 0.5 µg/mL (≈ 0.87 µM) | 0.25 µg/mL (≈ 0.435 µM) | 16 µg/mL (≈ 27.8 µM) | 1 µg/mL (≈ 1.74 µM) | 4 µg/mL (≈ 6.96 µM) | 4 µg/mL (≈ 6.96 µM) | 1 µg/mL (≈ 1.74 µM) | 2 µg/mL (≈ 3.48 µM)
